Data as given in patent US9708258B2, “Indole 3-carbinol derivatives” (Cadila Pharmaceuticals Ltd, priority 2013, dated 2017).

System: Carrageenan acute paw edema in Wistar rats
Assay: anti-inflammatory effect in the acute paw edema model (Carrageenan) in Wistar rats
Assay type: in vivo
Conditions: 50 mg/kg oral, basal = 100; for paw volume, Time 1 hr: 1 hr after carrageenan; for paw volume, Time 2 hr: 2 hr after carrageenan; for paw volume, Time 3 hr: 3 hr after carrageenan; for paw volume, Time 4 hr: 4 hr after carrageenan; for paw volume, Time 5 hr: 5 hr after carrageenan; for paw volume, Time 6 hr: 6 hr after carrageenan
Experimental: General Procedure for Screening:
Evaluated the anti-inflammatory effect of compounds of formula-I using acute paw edema model in Wistar rats using the following procedure.
All animals will be divided into required number of groups (n=6 per group; 8-12 weeks age) on the basis of body weight. After grouping basal paw volume of all animals will be measured with the help of plethysmometer instrument followed by drug administration by oral route. After 1 hr of dosing 100 μL of 1% Carrageenan prepared in normal saline will be administered in hind paw of all animals by S.C route. After 1 hr of carrageenan dosing paw volume of all animals will be measure up to 6 hr at each 1 hr interval.

Row | Structure (SMILES) | paw volume, Time 1 hr | paw volume, Time 2 hr | paw volume, Time 3 hr | paw volume, Time 4 hr | paw volume, Time 5 hr | paw volume, Time 6 hr
1 | CC(C)(C)OC(=O)n1cc(COC(=O)CCC(=O)O)c2ccccc21 [CPL-2012-136, Succinic acid mono-(1-tert-butoxycarbonyl-1H-indol-3-ylmethyl) ester] | 117.26 | 121.86 | 123.85 | 121.57 | 119.72 | 111.76
2 | CCC(=O)OCc1cn(C(=O)OC(C)(C)C)c2ccccc12 [CPL-2012-139, 3-Propionyloxymethyl-indole-1-carboxylic acid tert-butyl ester] | 116.73 | 123.68 | 122.72 | 120.63 | 115.55 | 113.42
3 | CCCCC(=O)OCc1cn(C(=O)OC(C)(C)C)c2ccccc12 [CPL-2012-144, 3-Pentanoyloxymethyl-indole-1-carboxylic acid tert-butyl ester] | 112.98 | 123.96 | 125.7 | 123.32 | 123.07 | 121.46
4 | CC(C)(C)OC(=O)n1cc(C(O)c2cc(F)c(F)cc2F)c2ccccc21 (stereo not drawn) [CPL-2013-156, 3-[Hydroxy-(2,4,5-trifluoro-phenyl)-methyl]indole-1-carboxylic acid tert-butyl ester] | 115.2 | 113.62 | 116.25 | 115.73 | 113.69 | 111.56
5 | CCC(=O)OCc1cn(C(=O)OCc2ccccc2)c2ccccc12 [CPL-2013-158, 3-Propionyloxymethyl-indole-1-carboxylic acid benzyl ester] | 113.82 | 115.12 | 112.02 | 112.46 | 108.11 | 107.2
